Measurements published in the supplement of paper PMC4862054.

tested on: HCC1937; experiment: drug sensitivity score (DSS), CellTiter-Glo (DSS (AUC-based score)); higher = stronger drug effect (viability inhibition or cytotoxicity); extreme values may be limits of the assay; conditions: incubation time: 72 h
Outline: (§1)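 Each compound occupied 5 concentrations in 10-fold steps over its own 10,000-fold range in 384-well plates, into which breast cancer cell lines were seeded as 20 µl suspension. Following 72 h of incubation, CellTox Green fluorescence (485/520 nm) was measured, and CellTiter-Glo luminescence was measured after 10 min at room temperature. Plates were individually normalised to 0.1 % DMSO and a positive kill control. From the area under the fitted dose-response curve, a drug sensitivity score was calculated.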

| SMILES | drug sensitivity score |
| --- | --- |
| Cc1ccc(-c2cc(C(F)(F)F)nn2-c2ccc(S(N)(=O)=O)cc2)cc1 [Celecoxib] | 0 |
| COc1cc2c(Oc3ccc4[nH]c(C)cc4c3F)ncnc2cc1OCCCN1CCCC1 [Cediranib] | 0 |
| Nc1nc2[nH]cc(CCc3ccc(C(=O)N[C@@H](CCC(=O)O)C(=O)O)cc3)c2c(=O)[nH]1 [Pemetrexed] | 8.27 |
| C[C@H]1C[C@@H]2[C@H]([C@@H](O)C[C@@]3(C)[C@H]2CC[C@]3(O)C(=O)CO)[C@@]2(C)C=CC(=O)C=C12 [Methylprednisolone] | 0 |
| COc1cc([C@@H]2c3cc4c(cc3[C@@H](O[C@@H]3O[C@@H]5CO[C@@H](c6cccs6)O[C@H]5[C@H](O)[C@H]3O)[C@H]3COC(=O)[C@H]23)OCO4)cc(OC)c1O [Teniposide] | 6.71 |

tested on: HDQ-P1; experiment: as above; conditions: incubation time: 72 h
Outline: as §1

| SMILES | drug sensitivity score |
| --- | --- |
| N#Cc1ccc(C(c2ccc(C#N)cc2)n2cncn2)cc1 [Letrozole] | 0 |
| CCCS(=O)(=O)Nc1ccc(F)c(C(=O)c2c[nH]c3ncc(-c4ccc(Cl)cc4)cc23)c1F [Vemurafenib] | 0 |
| O=C(O)C(=O)O.[NH-][C@@H]1CCCC[C@H]1[NH-].[Pt+2] [Oxaliplatin] | 0 |
| CCN(CC)CCCC(C)Nc1c2ccc(Cl)cc2nc2ccc(OC)cc12 (centres undefined) [Mepacrine] | 0 |
| Cc1ccc(-c2cc(C(F)(F)F)nn2-c2ccc(S(N)(=O)=O)cc2)cc1 [Celecoxib] | 0 |
| COc1cc2c(Oc3ccc4[nH]c(C)cc4c3F)ncnc2cc1OCCCN1CCCC1 [Cediranib] | 0 |
| Nc1nc2[nH]cc(CCc3ccc(C(=O)N[C@@H](CCC(=O)O)C(=O)O)cc3)c2c(=O)[nH]1 [Pemetrexed] | 2.5 |
| C[C@H]1C[C@@H]2[C@H]([C@@H](O)C[C@@]3(C)[C@H]2CC[C@]3(O)C(=O)CO)[C@@]2(C)C=CC(=O)C=C12 [Methylprednisolone] | 1.31 |
| COc1cc([C@@H]2c3cc4c(cc3[C@@H](O[C@@H]3O[C@@H]5CO[C@@H](c6cccs6)O[C@H]5[C@H](O)[C@H]3O)[C@H]3COC(=O)[C@H]23)OCO4)cc(OC)c1O [Teniposide] | 4.15 |

tested on: MCF-10A; experiment: as above; conditions: incubation time: 72 h
Outline: as §1

| SMILES | drug sensitivity score |
| --- | --- |
| N#Cc1ccc(C(c2ccc(C#N)cc2)n2cncn2)cc1 [Letrozole] | 0 |
| CCCS(=O)(=O)Nc1ccc(F)c(C(=O)c2c[nH]c3ncc(-c4ccc(Cl)cc4)cc23)c1F [Vemurafenib] | 0 |
| O=C(O)C(=O)O.[NH-][C@@H]1CCCC[C@H]1[NH-].[Pt+2] [Oxaliplatin] | 0 |
| CCN(CC)CCCC(C)Nc1c2ccc(Cl)cc2nc2ccc(OC)cc12 (centres undefined) [Mepacrine] | 0 |
| Cc1ccc(-c2cc(C(F)(F)F)nn2-c2ccc(S(N)(=O)=O)cc2)cc1 [Celecoxib] | 0 |
| COc1cc2c(Oc3ccc4[nH]c(C)cc4c3F)ncnc2cc1OCCCN1CCCC1 [Cediranib] | 0 |
| Nc1nc2[nH]cc(CCc3ccc(C(=O)N[C@@H](CCC(=O)O)C(=O)O)cc3)c2c(=O)[nH]1 [Pemetrexed] | 0 |
| C[C@H]1C[C@@H]2[C@H]([C@@H](O)C[C@@]3(C)[C@H]2CC[C@]3(O)C(=O)CO)[C@@]2(C)C=CC(=O)C=C12 [Methylprednisolone] | 0 |
| COc1cc([C@@H]2c3cc4c(cc3[C@@H](O[C@@H]3O[C@@H]5CO[C@@H](c6cccs6)O[C@H]5[C@H](O)[C@H]3O)[C@H]3COC(=O)[C@H]23)OCO4)cc(OC)c1O [Teniposide] | 0 |

tested on: MDA-MB-231; experiment: as above; conditions: incubation time: 72 h
Outline: as §1

| SMILES | drug sensitivity score |
| --- | --- |
| N#Cc1ccc(C(c2ccc(C#N)cc2)n2cncn2)cc1 [Letrozole] | 0 |
| CCCS(=O)(=O)Nc1ccc(F)c(C(=O)c2c[nH]c3ncc(-c4ccc(Cl)cc4)cc23)c1F [Vemurafenib] | 0 |
| O=C(O)C(=O)O.[NH-][C@@H]1CCCC[C@H]1[NH-].[Pt+2] [Oxaliplatin] | 0 |
| CCN(CC)CCCC(C)Nc1c2ccc(Cl)cc2nc2ccc(OC)cc12 (centres undefined) [Mepacrine] | 0 |
| Cc1ccc(-c2cc(C(F)(F)F)nn2-c2ccc(S(N)(=O)=O)cc2)cc1 [Celecoxib] | 0 |
| COc1cc2c(Oc3ccc4[nH]c(C)cc4c3F)ncnc2cc1OCCCN1CCCC1 [Cediranib] | 0 |
| Nc1nc2[nH]cc(CCc3ccc(C(=O)N[C@@H](CCC(=O)O)C(=O)O)cc3)c2c(=O)[nH]1 [Pemetrexed] | 6.23 |
| C[C@H]1C[C@@H]2[C@H]([C@@H](O)C[C@@]3(C)[C@H]2CC[C@]3(O)C(=O)CO)[C@@]2(C)C=CC(=O)C=C12 [Methylprednisolone] | 0 |
| COc1cc([C@@H]2c3cc4c(cc3[C@@H](O[C@@H]3O[C@@H]5CO[C@@H](c6cccs6)O[C@H]5[C@H](O)[C@H]3O)[C@H]3COC(=O)[C@H]23)OCO4)cc(OC)c1O [Teniposide] | 8.09 |

tested on: MDA-MB-436; experiment: as above; conditions: incubation time: 72 h
Outline: as §1

| SMILES | drug sensitivity score |
| --- | --- |
| N#Cc1ccc(C(c2ccc(C#N)cc2)n2cncn2)cc1 [Letrozole] | 0 |
| CCCS(=O)(=O)Nc1ccc(F)c(C(=O)c2c[nH]c3ncc(-c4ccc(Cl)cc4)cc23)c1F [Vemurafenib] | 0 |
| O=C(O)C(=O)O.[NH-][C@@H]1CCCC[C@H]1[NH-].[Pt+2] [Oxaliplatin] | 0 |
| CCN(CC)CCCC(C)Nc1c2ccc(Cl)cc2nc2ccc(OC)cc12 (centres undefined) [Mepacrine] | 0 |
| Cc1ccc(-c2cc(C(F)(F)F)nn2-c2ccc(S(N)(=O)=O)cc2)cc1 [Celecoxib] | 0 |
| COc1cc2c(Oc3ccc4[nH]c(C)cc4c3F)ncnc2cc1OCCCN1CCCC1 [Cediranib] | 0 |
| Nc1nc2[nH]cc(CCc3ccc(C(=O)N[C@@H](CCC(=O)O)C(=O)O)cc3)c2c(=O)[nH]1 [Pemetrexed] | 5.36 |
| C[C@H]1C[C@@H]2[C@H]([C@@H](O)C[C@@]3(C)[C@H]2CC[C@]3(O)C(=O)CO)[C@@]2(C)C=CC(=O)C=C12 [Methylprednisolone] | 0 |
| COc1cc([C@@H]2c3cc4c(cc3[C@@H](O[C@@H]3O[C@@H]5CO[C@@H](c6cccs6)O[C@H]5[C@H](O)[C@H]3O)[C@H]3COC(=O)[C@H]23)OCO4)cc(OC)c1O [Teniposide] | 16.8 |

tested on: MDA-MB-468; experiment: as above; conditions: incubation time: 72 h
Outline: as §1

| SMILES | drug sensitivity score |
| --- | --- |
| N#Cc1ccc(C(c2ccc(C#N)cc2)n2cncn2)cc1 [Letrozole] | 0 |
| CCCS(=O)(=O)Nc1ccc(F)c(C(=O)c2c[nH]c3ncc(-c4ccc(Cl)cc4)cc23)c1F [Vemurafenib] | 0 |
| O=C(O)C(=O)O.[NH-][C@@H]1CCCC[C@H]1[NH-].[Pt+2] [Oxaliplatin] | 0 |
| CCN(CC)CCCC(C)Nc1c2ccc(Cl)cc2nc2ccc(OC)cc12 (centres undefined) [Mepacrine] | 0 |
| Cc1ccc(-c2cc(C(F)(F)F)nn2-c2ccc(S(N)(=O)=O)cc2)cc1 [Celecoxib] | 0 |
| COc1cc2c(Oc3ccc4[nH]c(C)cc4c3F)ncnc2cc1OCCCN1CCCC1 [Cediranib] | 0 |
| Nc1nc2[nH]cc(CCc3ccc(C(=O)N[C@@H](CCC(=O)O)C(=O)O)cc3)c2c(=O)[nH]1 [Pemetrexed] | 1.37 |
| C[C@H]1C[C@@H]2[C@H]([C@@H](O)C[C@@]3(C)[C@H]2CC[C@]3(O)C(=O)CO)[C@@]2(C)C=CC(=O)C=C12 [Methylprednisolone] | 0 |
| COc1cc([C@@H]2c3cc4c(cc3[C@@H](O[C@@H]3O[C@@H]5CO[C@@H](c6cccs6)O[C@H]5[C@H](O)[C@H]3O)[C@H]3COC(=O)[C@H]23)OCO4)cc(OC)c1O [Teniposide] | 13.5 |

tested on: MFM-223; experiment: as above; conditions: incubation time: 72 h
Outline: as §1

| SMILES | drug sensitivity score |
| --- | --- |
| N#Cc1ccc(C(c2ccc(C#N)cc2)n2cncn2)cc1 [Letrozole] | 0 |
| CCCS(=O)(=O)Nc1ccc(F)c(C(=O)c2c[nH]c3ncc(-c4ccc(Cl)cc4)cc23)c1F [Vemurafenib] | 0 |
| O=C(O)C(=O)O.[NH-][C@@H]1CCCC[C@H]1[NH-].[Pt+2] [Oxaliplatin] | 0 |
| CCN(CC)CCCC(C)Nc1c2ccc(Cl)cc2nc2ccc(OC)cc12 (centres undefined) [Mepacrine] | 0 |
| Cc1ccc(-c2cc(C(F)(F)F)nn2-c2ccc(S(N)(=O)=O)cc2)cc1 [Celecoxib] | 0 |
| COc1cc2c(Oc3ccc4[nH]c(C)cc4c3F)ncnc2cc1OCCCN1CCCC1 [Cediranib] | 1.86 |
| Nc1nc2[nH]cc(CCc3ccc(C(=O)N[C@@H](CCC(=O)O)C(=O)O)cc3)c2c(=O)[nH]1 [Pemetrexed] | 0 |
| C[C@H]1C[C@@H]2[C@H]([C@@H](O)C[C@@]3(C)[C@H]2CC[C@]3(O)C(=O)CO)[C@@]2(C)C=CC(=O)C=C12 [Methylprednisolone] | 0 |
| COc1cc([C@@H]2c3cc4c(cc3[C@@H](O[C@@H]3O[C@@H]5CO[C@@H](c6cccs6)O[C@H]5[C@H](O)[C@H]3O)[C@H]3COC(=O)[C@H]23)OCO4)cc(OC)c1O [Teniposide] | 7.72 |
